Data published in patent publication US9315531B2, “Titanocene-gold derivatives comprising thiolato ligands” (Research Foundation of the City University of New York, priority 2014, dated 2016).

What was measured:
[1] = tested on: UO31; test: Cell viability assay (XTT), UO31; assay type: cell-based, human; details: 72 h
From the text: Cell Culture: Human renal cell carcinoma lines A498, Caki-1 and UO31, as well as the human prostate carcinoma cell lines DU145 and PC3 were newly obtained for these studies from the American Type Culture Collection (ATCC) (Manassas, Va., USA) and cultured in Roswell Park Memorial Institute (RPMI-1640) (Mediatech Inc., Manassas, Va.) media containing 10% fetal bovine serum (FBS, Life Technologies, Grand Island, N.Y.), 1% Minimum Essential Media (MEM) nonessential amino acids (NEAA, Mediatech) and 1% penicillin-streptomycin (PenStrep, Mediatech). HEK-293T cells were newly purchased from ATCC (Manassas, Va., USA) and maintained in Dulbecco's modified Eagle's medium (DMEM) (Mediatech) supplemented with 10% FBS, 1% NEAA and 1% PenStrep. […]
Cell Viability Assay: Cells were seeded at a concentration of 5000 cells/90 μl per well of either RPMI or DMEM without phenol red and without antibiotics, supplemented with 10% FBS and 2 mM L-glutamine into tissue culture grade 96-well flat bottom microplates (BioLite Microwell Plate, Fisher Scientific, Waltham, Mass., USA) and grown for 24 h at 37° C. in a humidified incubator. […] The optical absorbance of each well in a 96-well plate was quantified using BioTek ELx808 absorbance microplate reader (BioTek Winooski, Vt.) set at 450 nm wavelength. The percentage of surviving cells was calculated from the ratio of absorbance of treated to untreated cells.

[2] = tested on: Caki-1 cells; test: Annexin V/PI apoptosis assay; assay type: cell-based, human; details: Caki-1, 6 hours incubation, 10 μM
Protocol: To gain insight concerning the type of cell death that is induced in cancer cell lines, apoptosis assays were performed with Caki-1 cells with compound 2 dissolved in 1% DMSO solution in media. A 1% solution in media (FIG. 7) and staurosporine (FIG. 8) were used as controls. In early stages of apoptosis, one of the significant biochemical features is loss of plasma membrane phospholipid asymmetry due to translocation of phosphatidylserine (PS) from cytoplasmic to extracellular side. This characteristic allows detection of externalized PS by the specific binding of Annexin V (FITC-conjugated). Initiation of cell death will eventually result in the permeabilization of the cell membrane, allowing Pi to stain DNA within the nucleus. […] After incubation during 6 hours with 10 μM of compound 2 necrosis can be clearly proposed.
Annexin V/PI assay: Confluent Caki-1 cells were treated with either […], 0.1% DMSO or 5 μM of staurosporine for 6 h. […] Stained cells were analyzed by flow cytometry using Accuri C6 software (BD Biosciences, San Jose, Calif., USA).

[3] = tested on: Caki-1 cells; assay type: cell-based, human; details: Caki-1, 5 μM
Protocol: Anti-invasive properties were evaluated by using a wound-healing scratch assay.
Cell migration: For wound healing assays, Caki-1 cells were seeded in 6 cm dishes at a density of 0.8×10^6 in complete media, then grown to confluence for twenty-four hours at 37° C. (5% CO2), then cross-shape wounds/scratches were performed in the monolayer using a sterile 10 μl pipette tip. […] To quantify cell migration, the area of the initial wound (T0) is compared with the area of the healing wound at three time points after the scratch is introduced. Percent Migration=[area of original wound−area of wound during healing]/Area of original wound]×100.

[4] = Protocol: The lethal dose (LD) and maximum tolerated doses (MTD) of compound 2 were evaluated in C57/BL6 mice (see experimental for details). […] Twenty-four hours after the last dose all mice used in the MTD study were euthanized and blood plasma, liver, spleen and kidneys were collected and used for histological analysis.
Lethal and maximum tolerated doses (LD and MTD): Determination of lethal and maximum tolerated doses (LD and MTD) in mice: The preliminary toxicity testing of compound 2 was performed in C57BL/6 female mice six to eight weeks of age, maintained in accordance with institutional guidelines at the University of Hawaii Cancer Center (UHCC) governing the care of laboratory animals (IACUC number: A3423-01). To determine the lethal dose, mice were treated for five consecutive days at dosages ranging from 1.5 mg/kg/day to 6 mg/kg/day. One mouse per dose was used. Mice were weighed every forty-eight hours, and sacrificed twenty-four hours after the last dose. […] In order to determine the maximum tolerated dose (MTD) the animals were monitored by trained individuals for pain and distress as appropriate for the animal, under conditions and by procedures established by the UHCC vivarium veterinarian staff and research personnel (BTE). The maximum tolerated dose (MTD) was determined by observing the progression of the mice treated at doses below the lethal dose. Body weights, changes in behavior and signs of distress were recorded. The dose at which neither debilitating effects nor sign of distress were observed was set as the MTD. More specifically the signs for distress monitored were: 1. Decreased food and water consumption; 2. […] Abnormal posture/positioning (e.g., head-pressing, hunched back); 4. Unkempt appearance (erected, matted, or dull haircoat); 5. Self-mutilation, gnawing at limbs; 6. Excessive self-imposed isolation/hiding. […] One group of mice was treated with the solvent (negative control).

[5] = tested on: thioredoxin reductase
Protocol: After 5, 12 or 24 hours of treatment incubation cells were washed three times in PBS, and lysed by douncing using scrapers and sheer force though syringe with a 34 gauge needle in assay buffer (Abeam Thioredoxin Reductase Assay kit, ab83463) added to 1 mM protease inhibitor cocktail (Abeam, ab65621). The lysates were centrifuged at 10,000×g for 15 minutes at 4° C. to isolate insoluble material. The total protein concentrations of soluble lysates were measured using the BCA Protein Assay (Life Technologies). The soluble lysates were incubated for 20 minutes in assay buffer with a proprietary thioredoxin reductase specific inhibitor before adding a specific substrate, DTNB (5, 5′-dithiobis(2-nitrobenzoic) acid), and measuring activity at 1 minute intervals for 30 minutes using the BioTek fluorescence microplate reader (BioTek U.S., Winooski, Vt.) set at =412 nm. Lysates were tested in duplicate. TrxR activity was calculated based on the linear amount of TNB produced per minute per mg of total protein and corrected for background activity from enzymes other than TrxR in the lysates.

[(η-C5H5)2TiMe(μ-mba)Au(PPh3)] [Compound 2]
IC50 UO31 [1]: nanomolar range | type of cell death induced [2]: necrosis | inhibition of migration [3]: complete inhibition of migration | necropsy findings at MTD ([4]; 10 mg/kg/day compound 6, 5 mg/kg/day compound 2): normal liver and slightly enlarged spleens | maximum tolerated dose (MTD) ([4]; C57/BL6 mice, no visible signs of distress over seven days): 5 mg/kg/day | lethal dose (LD) ([4]; C57/BL6 mice, once daily subcutaneous injection): 6 mg/kg/day | inhibition of thioredoxin reductase activity ([5]; Caki-1 cells, 5 μM, five hour incubation): 31.6% | IC50 ([5]; read-out: IC50 thioredoxin reductase in Caki-1 cells, after twelve hours): 880 nM
